# Data: ChEMBL document CHEMBL2331288 (Bioorg Med Chem Lett, 2013)
# Key:
# [1] = target: 72 kDa type IV collagenase (Homo sapiens, UniProt P08253)
# Description: Inhibition of human recombinant MMP2 using succinylated gelatin as substrate incubated for 30 mins prior to substrate addition measured after 60 mins
# Interstitial collagenase = target: T1, Interstitial collagenase (Homo sapiens, UniProt P03956)
# T1 sequence (P03956 whole entry): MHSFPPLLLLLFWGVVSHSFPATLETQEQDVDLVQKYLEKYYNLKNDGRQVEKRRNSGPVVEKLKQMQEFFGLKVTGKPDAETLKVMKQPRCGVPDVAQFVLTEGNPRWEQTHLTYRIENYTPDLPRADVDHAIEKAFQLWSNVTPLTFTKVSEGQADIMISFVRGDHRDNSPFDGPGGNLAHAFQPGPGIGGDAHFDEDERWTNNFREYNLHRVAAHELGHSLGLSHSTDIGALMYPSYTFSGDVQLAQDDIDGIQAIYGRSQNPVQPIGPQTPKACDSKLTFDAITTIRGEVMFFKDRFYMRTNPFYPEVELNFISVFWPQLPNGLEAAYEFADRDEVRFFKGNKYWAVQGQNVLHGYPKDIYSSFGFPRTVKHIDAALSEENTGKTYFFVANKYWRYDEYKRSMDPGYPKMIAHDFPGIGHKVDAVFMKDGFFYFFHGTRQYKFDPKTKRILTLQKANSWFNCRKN
# Description: Inhibition of human recombinant MMP1 using succinylated gelatin as substrate incubated for 30 mins prior to substrate addition measured after 60 mins
# Sequence of 72 kDa type IV collagenase (P08253 whole entry): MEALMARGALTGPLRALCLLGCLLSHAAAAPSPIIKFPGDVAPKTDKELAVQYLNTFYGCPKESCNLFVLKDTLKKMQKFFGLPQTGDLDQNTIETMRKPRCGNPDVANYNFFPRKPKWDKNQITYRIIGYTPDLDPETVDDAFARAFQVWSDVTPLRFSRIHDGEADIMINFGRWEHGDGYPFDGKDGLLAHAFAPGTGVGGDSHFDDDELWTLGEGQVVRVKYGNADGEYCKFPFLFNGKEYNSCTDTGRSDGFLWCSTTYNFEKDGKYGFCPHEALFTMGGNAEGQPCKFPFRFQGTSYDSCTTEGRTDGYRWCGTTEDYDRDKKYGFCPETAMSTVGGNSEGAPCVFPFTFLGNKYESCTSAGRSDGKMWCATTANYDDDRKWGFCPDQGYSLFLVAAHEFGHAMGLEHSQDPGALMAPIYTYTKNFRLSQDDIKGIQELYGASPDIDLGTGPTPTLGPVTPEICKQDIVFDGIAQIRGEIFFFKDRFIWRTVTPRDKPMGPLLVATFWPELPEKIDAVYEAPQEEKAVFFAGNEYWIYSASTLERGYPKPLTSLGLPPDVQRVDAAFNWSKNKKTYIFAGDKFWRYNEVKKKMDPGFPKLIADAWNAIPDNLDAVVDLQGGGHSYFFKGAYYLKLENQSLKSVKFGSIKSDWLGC
IC50 [1] [nM],IC50 (Interstitial collagenase) [nM],Compound
8.31,4370,O=C(/C=C/c1ccc(O)c(O)c1)Nc1ccc(F)cc1
1680,5290,COc1cccc(NC(=O)/C=C/c2ccc(O)c(O)c2)c1
3.42,5320,COc1ccc(NC(=O)/C=C/c2ccc(O)c(O)c2)cc1
9.11,3710,O=C(/C=C/c1ccc(O)c(O)c1)Nc1ccccc1Cl
1820,4300,O=C(/C=C/c1ccc(O)c(O)c1)Nc1cccc(F)c1
1870,3810,O=C(/C=C/c1ccc(O)c(O)c1)Nc1cccc(Cl)c1
3.55,4830,Cc1ccc(NC(=O)/C=C/c2ccc(O)c(O)c2)cc1
8.95,3960,O=C(/C=C/c1ccc(O)c(O)c1)Nc1ccc(Cl)cc1
5.97,4710,Cc1ccccc1NC(=O)/C=C/c1ccc(O)c(O)c1
1720,4800,Cc1cccc(NC(=O)/C=C/c2ccc(O)c(O)c2)c1
8.92,4250,O=C(/C=C/c1ccc(O)c(O)c1)Nc1ccccc1F
5.27,5250,COc1ccccc1NC(=O)/C=C/c1ccc(O)c(O)c1
9.13,3250,O=C(/C=C/c1ccccc1)NCCc1ccccc1
5.28,5400,O=C(/C=C/c1ccccc1)Nc1ccc(O)cc1
9.11,3500,O=C(/C=C/c1cccc(O)c1)Nc1ccc(Cl)cc1
8.32,3140,O=C(/C=C/c1ccc(O)cc1)NCc1ccccc1
1760,5220,COc1cccc(NC(=O)/C=C/c2ccc(O)cc2)c1
4.09,5290,COc1ccc(NC(=O)/C=C/c2ccc(O)cc2)cc1
1750,4880,Cc1cccc(NC(=O)/C=C/c2ccc(O)cc2)c1
9.01,4230,O=C(/C=C/c1ccc(O)cc1)Nc1ccccc1F
1580,4430,O=C(/C=C/c1ccc(O)cc1)Nc1cccc(F)c1

IC50 [1] [nM],IC50 (Interstitial collagenase) [nM],Compound
8.44,3600,O=C(/C=C/c1cccc(O)c1)NCc1ccccc1
8.46,3600,O=C(/C=C/c1cccc(O)c1)NCCc1ccccc1
5.57,5210,O=C(/C=C/c1cccc(O)c1)Nc1ccccc1O
1670,5160,COc1cccc(NC(=O)/C=C/c2cccc(O)c2)c1
5.73,4740,Cc1ccccc1NC(=O)/C=C/c1cccc(O)c1
9.09,4120,O=C(/C=C/c1cccc(O)c1)Nc1ccccc1F
1870,4210,O=C(/C=C/c1cccc(O)c1)Nc1cccc(F)c1
8.59,4390,O=C(/C=C/c1cccc(O)c1)Nc1ccc(F)cc1
9.41,3260,O=C(/C=C/c1cccc(O)c1)Nc1ccccc1Cl
8.05,3240,O=C(/C=C/c1ccc(O)c(O)c1)Nc1ccccc1
8.37,3220,O=C(/C=C/c1ccc(O)cc1)NCCc1ccccc1
5.09,5620,O=C(/C=C/c1ccc(O)c(O)c1)Nc1ccccc1O
8.22,3250,O=C(/C=C/c1ccc(O)c(O)c1)NCc1ccccc1
1590,5770,O=C(/C=C/c1ccc(O)c(O)c1)Nc1cccc(O)c1
3.28,5830,O=C(/C=C/c1ccc(O)c(O)c1)Nc1ccc(O)cc1
8.41,3400,O=C(/C=C/c1cccc(O)c1)Nc1ccccc1 [3-HYDROXY-CINNAMANILIDE]
8.2,3300,O=C(/C=C/c1ccc(O)c(O)c1)NCCc1ccccc1 [CAFFEIC ACID PHENETHYL AMIDE]
1950,4590,Cc1cccc(NC(=O)/C=C/c2ccccc2)c1 [N-M-TOLYLCINNAMAMIDE]
6.41,4520,Cc1ccccc1NC(=O)/C=C/c1ccccc1 [N-O-TOLYLCINNAMAMIDE]
5.46,4670,Cc1ccc(NC(=O)/C=C/c2ccccc2)cc1 [N-P-TOLYLCINNAMAMIDE]

Compound,IC50 [1] [nM],IC50 (Interstitial collagenase) [nM]
O=C(O)/C=C/c1ccc(O)c(O)c1 [CAFFEIC ACID],24.3,239
